For one data set, the system named is Caki-2. Kind of data set: apilimod 5 day assay in clear cell RCC line Caki-2. Type of data set: cell-based. The settings on record: Homo sapiens, 120 h, Caki-2 clear cell RCC line, VHL mutant, read-out: EC50 (nM) (avg, n = 2).
In a further data set the test system is TSC null cells. The settings on record: mTOR pathway constitutively active; previously shown; cited from earlier work.
The test system of a further data set is A498. Kind of data set: apilimod 5 day assay in clear cell RCC line A498. The settings on record: Homo sapiens, 120 h, VHL mutant, read-out: EC50 (nM) (avg, n = 2). Type of data set: cell-based.
The test system of data set [1] is clear cell RCC cell lines (n=5). Kind of data set: anti-proliferative activity versus standard of care drugs, 5 day assays. Type of data set: cell-based. To be noted: versus axitinib, sorafenib, pazopanib, sunitinib and rapamycin. An excerpt:
FIG. 8: anti-proliferative activity of apilimod versus standard of care drugs in clear cell RCC cell lines (n=5) in 5 day assays. *Values denote the geometric mean.

The subject of another data set is A-704. Kind of data set: apilimod 5 day assay in clear cell RCC line A-704. Type of data set: cell-based. The settings on record: Homo sapiens, A704, 120 h, A-704 clear cell RCC line, VHL mutant, read-out: EC50 (nM) (avg, n = 2).
The subject of a further data set is ACHN. Put plainly: apilimod 5 day assay in clear cell RCC line ACHN. Type of data set: cell-based. To be noted: Homo sapiens, 120 h, VHL WT, read-out: EC50 (nM) (avg, n = 2).
Another data set deals with KMRC-1. Kind of data set: apilimod 5 day assay in clear cell RCC line KMRC-1. Type of data set: cell-based. The settings on record: 120 h, KMRC-1 clear cell RCC line, VHL mutant, read-out: EC50 (nM) (avg, n = 2).
For a further data set, the system named is 769-P. Kind of data set: apilimod 5 day assay in clear cell RCC line 769-P. Type of data set: cell-based. To be noted: Homo sapiens, 120 h, 769-P clear cell RCC line, VHL mutant, read-out: EC50 (nM) (avg, n = 2).
For data set [2], the system named is synovial IL-12 and IL-23 expression. The settings on record: patients with rheumatoid arthritis; Krauz et al. 2012; cited from earlier work.
The subject of the next data set is RCC-MF. Put plainly: apilimod 5 day assay in clear cell RCC line RCC-MF. The settings on record: 120 h, read-out: EC50 (nM) (avg, n = 2). Type of data set: cell-based.
The test system of a further data set is RCC-FG2. Put plainly: apilimod 5 day assay in clear cell RCC line RCC-FG2. Type of data set: cell-based. The settings on record: 120 h, VHL mutant, read-out: EC50 (nM) (avg, n = 2).
For data set [3], the system named is SU-DHL-10 and WSU-DLCL2 B-NHL lines. Kind of data set: global gene expression and gene ontology analysis. The settings on record: SU-DHL-10 and WSU-DLCL2 after apilimod treatment. Type of data set: cell-based. An excerpt:
FIG. 1: heatmap representation of gene expression changes in SU-DHL-10 and WSU-DLCL2 B-NHL lines upon apilimod treatment.
(§1) To further understand apilimod's cellular mechanism of action, we performed a global gene expression analysis of the changes occurring after apilimod treatment of two non-Hodgkins B cell lymphoma (B-NHL) tumor cell lines, SU-DHL-10 and WSU-DLCL2. […] We next performed a gene ontology analysis. […] We next used LysoTracker staining to examine the acidified compartment of the cells.

The next data set concerns RCC-JW. Kind of data set: apilimod 5 day assay in clear cell RCC line RCC-JW. Type of data set: cell-based. To be noted: 120 h, read-out: EC50 (nM) (avg, n = 2).
A further data set has as its system SU-DHL-6 and SU-DHL-10. Kind of data set: LysoTracker staining of the acidified compartment. Type of data set: cell-based. To be noted: 200 nM apilimod, 24 and 48 hrs, compared to DMSO. As for the experimental part:
FIG. 3: LysoTracker staining in SU-DHL-6 and SU-DHL-10 for 24 and 48 hrs after treatment with 200 nM (blue) apilimod compared to DMSO treated control (red).
as §1

The next data set concerns KMRC-3. Put plainly: apilimod 5 day assay in clear cell RCC line KMRC-3. Type of data set: cell-based. The settings on record: 120 h, KMRC-3 clear cell RCC line, VHL mutant, read-out: EC50 (nM) (avg, n = 2).
The next data set concerns 786-0. Kind of data set: apilimod 5 day assay in clear cell RCC line 786-0. To be noted: Homo sapiens, 120 h, 786-0 clear cell RCC line, VHL mutant, read-out: EC50 (nM) (avg, n = 2). Type of data set: cell-based.
The next data set has as its system TFEB. Put plainly: TFEB phosphorylation status and subcellular localization by immunoblotting. Type of data set: cell-based. To be noted: SU-DHL-6 cells, apilimod 63 nM, 2 hr. On the procedure: FIG. 4: nuclear and cytoplasmic levels of TFEB protein assayed by immunoblotting in SU-DHL-6 cells treated with apilimod (63 nM) for 2 hr.
TFEB is a master regulator of lysosomal gene expression and is activated by dephosphorylation followed by nuclear translocation (Roczniak-Ferguson et al., 2012; Settembre et al., 2012). Accordingly, we next looked at TFEB phosphorylation status and subcellular localization following apilimod treatment.
On the technique in general: In western blotting, separated proteins are transferred to a membrane and probed.

In data set [4] the test system is CA46 (TFEB-deficient B-NHL). Kind of data set: apilimod dose response in CA46 pools over-expressing GFP control or TFEB. Type of data set: cell-based. To be noted: CA46 pools over-expressing TFEB vs GFP control, 10-point dose response, 72 hrs. On the procedure: FIG. 6: stable CA46 (TFEB-deficient B-NHL) pools over-expressing either GFP control or TFEB were treated with 10-point apilimod dose response for 72 hrs.
To further explore the role of TFEB in the cellular response to apilimod, the expression levels of TFEB across different cancer cell lines from the Cancer Cell Line Encyclopedia (CCLE) database (Barretina et al., 2012) were extracted and examined to determine whether there was a correlation between TFEB expression and the sensitivity of the cell line to apilimod. […] To test whether the increased TFEB expression contributes to the apilimod sensitivity observed in B-NHL, we overexpressed TFEB in the TFEB-deficient B-NHL cell line CA46.

The next data set concerns Caki-1. Kind of data set: apilimod 5 day assay in clear cell RCC line Caki-1. Type of data set: cell-based. The settings on record: Homo sapiens, 120 h, Caki-1 clear cell RCC line, VHL WT, read-out: EC50 (nM) (avg, n = 2).
Data set [5] relates to RCC having a VHL mutation. Put plainly: apilimod cytotoxicity in RCC lines by VHL status. Type of data set: cell-based. The settings on record: clear cell RCC lines of Table 2, 5 day assay.
For data set [6] the following is noted: active Crohn's disease; Sands et al. 2010; cited from earlier work.
Another data set deals with RCC-ER. Kind of data set: apilimod 5 day assay in clear cell RCC line RCC-ER. Type of data set: cell-based. To be noted: 120 h, VHL mutant, read-out: EC50 (nM) (avg, n = 2). An excerpt:
FIG. 7B: example dose response of renal cell line RCC-ER and normal colon cell line CCD841CoN to apilimod in a 5 day assay.

In another data set the test system is RCC-JF. Kind of data set: apilimod 5 day assay in clear cell RCC line RCC-JF. Type of data set: cell-based. To be noted: 120 h, VHL mutant, read-out: EC50 (nM) (avg, n = 2).

Results on one compound are retold here after patent publication US20190015421A1, “Biomarkers for Treating Cancer with Apilimod” (LAM Therapeutics, Inc., priority 2016, published 2019).

As a reminder, the EC50 is the concentration at which the effect is half-maximal.

Molecules are shown by their SMILES.

As to `Cc1cccc(/C=N/Nc2cc(N3CCOCC3)nc(OCCc3ccccn3)n2)c1` [apilimod], the EC50 in the data set on Caki-2 is 3360 nM; with A498, 84000 nM; in the data set with A-704, 11 nM; in the data set on ACHN, 9040 nM; in the data set on KMRC-1 it was 4 nM; in the data set on 769-P, 44 nM. In addition, the half-maximal effective concentration (EC50) was found to be 8 nM with RCC-MF; 32 nM with RCC-FG2; 27 nM in the data set on RCC-JW; 39 nM in the data set on KMRC-3; 71 nM in the data set on 786-0; 2280 nM in the data set with Caki-1. Moreover, the results for the half-maximal effective concentration (EC50) in the data set with RCC-ER and with RCC-JF were 9 nM and 60 nM, respectively. For the same compound, the “cytotoxicity in TSC null cells” value in the data set with TSC null cells is recorded as “highly cytotoxic”. For the same compound, in data set [1], the “activity against clear cell RCCs relative to standard of care treatments” value is given as “superior activity”. Moreover, in data set [2], the “effect on synovial IL-12 and IL-23 expression” value is “failed to alter synovial IL-12 and IL-23 expression”. In addition, in data set [3], the “gene ontology of genes induced by apilimod” value is listed as “clear enrichment of lysosomal genes”. Moreover, in the data set on SU-DHL-6 and SU-DHL-10, the “acidified compartment (LysoTracker staining)” value is on record as “expansion of the acidified compartment”. The “TFEB dephosphorylation and nuclear translocation” value with TFEB is “induces TFEB dephosphorylation and nuclear translocation”. The “enhancement of apilimod sensitivity by TFEB over-expression” value in [4] is on record as “greater than 50 fold”. The “cytotoxicity by VHL status” value in [5] is on record as “preferentially cytotoxic in RCC having a VHL mutation”. In addition, the efficacy over placebo result in data set [6] is listed as “did not demonstrate efficacy over placebo”. Besides, the tolerability entry in data set [6] was “well tolerated”.
